Data taken from ChEMBL document CHEMBL1147608, “SAR development of polycyclic guanine derivatives targeted to the discovery of a selective PDE5 inhibitor for treatment of erectile dysfunction” (Bioorg Med Chem Lett, 2004).

Tests used:
[1] = target: T1, cGMP-specific 3',5'-cyclic phosphodiesterase (Homo sapiens, UniProt O76074)
[2] = target: Phosphodiesterase 4 and 5 (PDE4 and PDE5) (Homo sapiens) (UniProt O76074+P27815+Q08499+Q07343+Q08493); assay: Relative inhibition of PDE4 and PDE5; type: protein assay
[3] = target: Phosphodiesterase 3 and 5 (PDE3 and PDE5) (Homo sapiens) (UniProt O76074+Q14432+Q13370); assay: Relative inhibition of PDE3 and PDE5; type: protein assay
[4] = target: Phosphodiesterase, PDE1/PDE5 (Homo sapiens) (UniProt O76074+P54750+Q01064+Q14123); assay: Realtive inhibition of PDE1 and PDE5; type: protein assay
[5] = target: Phosphodiesterase 2 and 5 (PDE2 and PDE5) (Homo sapiens) (UniProt O76074+O00408); assay: Relative inhibition of PDE2 and PDE5; type: protein assay
[6] = target: T1, cGMP-specific 3',5'-cyclic phosphodiesterase; assay: Inhibition of human phosphodiesterase 5 at 100 nM

Compound	IC50 [1]	further results
CCN1C(=O)c2c(nc(C#Cc3ccccc3)n2Cc2ccc(O)cc2)N2C1=N[C@@H]1CCC[C@@H]12	0.3 nM	–
CCN1C(=O)c2c(nc(OC)n2Cc2ccc(O)c(Br)c2)N2C[C@@H](Cc3ccccc3)N=C12	1.3 nM	Selectivity [2]: 3770; Selectivity [3]: 7690; Selectivity [4]: 7690; Selectivity [5]: 7690
CCN1C(=O)c2c(nc(C(=O)OC)n2Cc2ccc(OC)cc2)N2C1=N[C@@H]1CCC[C@@H]12	6.8 nM	–
CCSc1nc2c(n1Cc1ccc(O)cc1)C(=O)N(CC)C1=N[C@@H]3CCC[C@@H]3N12	1.8 nM	–
CCN1C(=O)c2c(nc(Cc3ccccc3)n2Cc2cccc(Br)c2)N2C1=N[C@@H]1CCC[C@@H]12	–	inhibition [6]: 33%
CCN1C(=O)c2c(nc(C(N)=O)n2Cc2ccc(O)cc2)N2C1=N[C@@H]1CCC[C@@H]12	2.1 nM	–
CCN1C(=O)c2c(nc(Cc3ccccc3)n2Cc2cccc(Cl)c2)N2C1=N[C@@H]1CCC[C@@H]12	–	inhibition [6]: 26%
CCN1C(=O)c2c(nc(C(N)=O)n2Cc2ccc(O)c(Br)c2)N2C1=N[C@@H]1CCC[C@@H]12	0.9 nM	–
CCN1C(=O)c2c(nc(Cc3ccccc3)n2Cc2cccc(C)c2)N2C1=N[C@@H]1CCC[C@@H]12	–	inhibition [6]: 26%
CCN1C(=O)c2c(nc(C(=O)NC)n2Cc2ccc(O)c(Cl)c2)N2C1=N[C@@H]1CCC[C@@H]12	1.3 nM	–
CCN1C(=O)c2c(nc(Cc3ccccc3)n2Cc2ccc3c(c2)OCO3)N2C1=N[C@@H]1CCC[C@@H]12	46 nM	–
CCN1C(=O)c2c(ncn2Cc2ccc(OC)cc2)N2C1=N[C@@H]1CCC[C@@H]12	55 nM	–
CCN1C(=O)c2c(ncn2Cc2ccc(O)c(Br)c2)N2C1=N[C@@H]1CCC[C@@H]12	6.3 nM	–
CCN1C(=O)c2c(nc(OC)n2Cc2ccc(OC)c(C#N)c2)N2C[C@@H](Cc3ccccc3)N=C12	11 nM	Selectivity [2]: 464; Selectivity [3]: 909; Selectivity [4]: 536; Selectivity [5]: 909
CCN1C(=O)c2c(nc(OCc3ccccc3)n2Cc2ccc(O)c(Cl)c2)N2C[C@@H](Cc3ccccc3)N=C12	2.1 nM	Selectivity [2]: 2170; Selectivity [3]: 4760; Selectivity [4]: 4760; Selectivity [5]: 4760
CCN1C(=O)c2c(nc(S(=O)(=O)CC)n2Cc2ccc(OC)cc2)N2C1=N[C@@H]1CCC[C@@H]12	–	inhibition [6]: 31%
CCN1C(=O)c2c(nc(Cc3ccccc3)n2Cc2cccc(OC)c2)N2C1=N[C@@H]1CCC[C@@H]12	–	inhibition [6]: 14%
CCN1C(=O)c2c(nc(Cc3ccccc3)n2Cc2ccc([N+](=O)[O-])cc2)N2C1=N[C@@H]1CCC[C@@H]12	–	inhibition [6]: 8%
CCN1C(=O)c2c(nc(C#N)n2Cc2ccc(OC)cc2)N2C1=N[C@@H]1CCC[C@@H]12	6.3 nM	–

Compound	IC50 [1]	further results
CCN1C(=O)c2c(nc(Cc3ccccc3)n2Cc2ccc(OC)cc2)N2C1=N[C@@H]1CCC[C@@H]12	20 nM	–
CCN1C(=O)c2c(nc(N)n2Cc2ccc(O)cc2)N2C1=N[C@@H]1CCC[C@@H]12	22 nM	–
CCOc1nc2c(n1Cc1ccc(O)c(Cl)c1)C(=O)N(CC)C1=N[C@@H]3CCC[C@@H]3N12	2.1 nM	–
CCOc1nc2c(n1Cc1ccc(OC)c(Br)c1)C(=O)N(CC)C1=N[C@@H]3CCC[C@@H]3N12	5.4 nM	–
CCN1C(=O)c2c(nc(OC)n2Cc2ccc(OC)c(Cl)c2)N2C[C@@H](Cc3ccccc3)N=C12	1.6 nM	Selectivity [2]: 394; Selectivity [3]: 6250; Selectivity [4]: 4380; Selectivity [5]: 6250
CCN1C(=O)c2[nH]c(Cc3ccccc3)nc2N2C1=N[C@@H]1CCC[C@@H]12	39 nM	–
CCN1C(=O)c2c(nc(OC)n2Cc2ccc(OC)c(Cl)c2)N2C1=N[C@@H]1CCC[C@@H]12	5 nM	–
CCN1C(=O)c2c(nc(OC)n2Cc2ccc(O)c(C#N)c2)N2C[C@@H](Cc3ccccc3)N=C12	43 nM	–
CCN1C(=O)c2c(nc(Cc3ccccc3)n2Cc2ccc3ccccc3c2)N2C1=N[C@@H]1CCC[C@@H]12	–	inhibition [6]: 32%
CCN1C(=O)c2c(nc(Cc3ccccc3)n2Cc2ccccc2)N2C1=N[C@@H]1CCC[C@@H]12	130 nM	–
CCN1C(=O)c2c(nc(Cc3ccccc3)n2Cc2ccc(OC)c(Cl)c2)N2C1=N[C@@H]1CCC[C@@H]12	58 nM	–
CCN1C(=O)c2c(nc(C(N)=O)n2Cc2ccc(OC)c(Br)c2)N2C1=N[C@@H]1CCC[C@@H]12	1.5 nM	–
CCN1C(=O)c2c(ncn2Cc2ccc(OC)c(Br)c2)N2C1=N[C@@H]1CCC[C@@H]12	6.5 nM	–
CCOc1nc2c(n1Cc1ccc(O)cc1)C(=O)N(CC)C1=N[C@@H]3CCC[C@@H]3N12	0.9 nM	–
CCN1C(=O)c2c(nc(Cc3ccccc3)n2Cc2ccc(N)cc2)N2C1=N[C@@H]1CCC[C@@H]12	550 nM	–
CCN1C(=O)c2c(nc(C#Cc3ccccc3)n2Cc2ccc(Cl)cc2)N2C1=N[C@@H]1CCC[C@@H]12	5 nM	–
CCN1C(=O)c2c(nc(C(N)=O)n2Cc2ccc(OC)c(Cl)c2)N2C[C@@H](Cc3ccccc3)N=C12	2.8 nM	–
CCN1C(=O)c2c(nc(N=[N+]=[N-])n2Cc2ccc(O)cc2)N2C1=N[C@@H]1CCC[C@@H]12	0.61 nM	–
CCN1C(=O)c2c(nc(C(=O)NC)n2Cc2ccc(OC)c(Cl)c2)N2C1=N[C@@H]1CCC[C@@H]12	2.3 nM	–

Compound	IC50 [1]	further results
CCN1C(=O)c2c(nc(C(N)=O)n2Cc2ccc(O)c(Cl)c2)N2C[C@@H](Cc3ccccc3)N=C12	3 nM	Selectivity [2]: 1730; Selectivity [3]: 3330; Selectivity [4]: 2600; Selectivity [5]: 3330
CCN1C(=O)c2c(nc(OC)n2Cc2ccc(O)c(Cl)c2)N2C1=N[C@@H]1CCC[C@@H]12	2 nM	–
CCN1C(=O)c2c(nc(C#Cc3ccccc3)n2Cc2ccccc2)N2C1=N[C@@H]1CCC[C@@H]12	8 nM	–
CCN1C(=O)c2c(nc(C(F)(F)F)n2Cc2ccc(O)cc2)N2C1=N[C@@H]1CCC[C@@H]12	7 nM	–
CCN1C(=O)c2c(nc(OC)n2Cc2ccc(O)c(Br)c2)N2C1=N[C@@H]1CCC[C@@H]12	1.6 nM	–
CCN1C(=O)c2c(nc(C(N)=O)n2Cc2ccc(O)c(Cl)c2)N2C1=N[C@@H]1CCC[C@@H]12	1.1 nM	–
CCN1C(=O)c2c(nc(N(C)C)n2Cc2ccc(OC)cc2)N2C1=N[C@@H]1CCC[C@@H]12	–	inhibition [6]: 27%
CCSc1nc2c(n1Cc1ccc(OC)cc1)C(=O)N(CC)C1=N[C@@H]3CCC[C@@H]3N12	13 nM	–
CCN1C(=O)c2c(nc(C(F)(F)F)n2Cc2ccc(OC)cc2)N2C1=N[C@@H]1CCC[C@@H]12	48 nM	–
CCN1C(=O)c2c(nc(OC)n2Cc2ccc(OC)c(Br)c2)N2C1=N[C@@H]1CCC[C@@H]12	2.8 nM	–
CCN1C(=O)c2c(nc(C(N)=O)n2Cc2ccc(OC)cc2)N2C1=N[C@@H]1CCC[C@@H]12	4 nM	–
CCN1C(=O)c2c(nc(Cc3ccccc3)n2Cc2ccc(Cl)cc2)N2C1=N[C@@H]1CCC[C@@H]12	160 nM	–
CCN1C(=O)c2c(nc(C#Cc3ccccc3)n2Cc2ccc(OC)cc2)N2C1=N[C@@H]1CCC[C@@H]12	3.1 nM	–
CCN1C(=O)c2c(nc(OC)n2Cc2ccc(OC)c(Br)c2)N2C[C@@H](Cc3ccccc3)N=C12	2.2 nM	Selectivity [2]: 418; Selectivity [3]: 4540; Selectivity [4]: 4090; Selectivity [5]: 4540
CCN1C(=O)c2c(nc(Cc3ccccc3)n2Cc2ccc(C)c(Cl)c2)N2C1=N[C@@H]1CCC[C@@H]12	–	inhibition [6]: 27%
CCOc1nc2c(n1Cc1ccc(OC)cc1)C(=O)N(CC)C1=N[C@@H]3CCC[C@@H]3N12	18 nM	–
CCN1C(=O)c2c(nc(Cc3ccccc3)n2Cc2ccccc2C)N2C1=N[C@@H]1CCC[C@@H]12	–	inhibition [6]: 18%
CCN1C(=O)c2c(nc(Cc3ccccc3)n2Cc2ccc(C)cc2)N2C1=N[C@@H]1CCC[C@@H]12	40 nM	–
CCOc1nc2c(n1Cc1ccc(OC)c(Cl)c1)C(=O)N(CC)C1=N[C@@H]3CCC[C@@H]3N12	6.5 nM	–
